Results reported in patent US20130045933A1, “ALOE-EMODIN DERIVATIVES AND USE THEREOF FOR THE TREATMENT OF CANCER” (RAMOT AT TEL-AVIV UNIVERSITY LTD., priority 2010, published 2013).
Where two headings read alike, the source gives them in different places. Values belong to the molecule of their own block, whether it stands above or below them.

Experiments:
DOX resistant NAR cells = assay: Fluorescent confocal microscopy study of cell permeability; assay type: cell-based; details: 5 μM, two hour incubation
Protocol: Cells (1×10^5/well) were plated into 24-well microtiter plates and incubated over coverslips for 24 hours. The cells were then added with one of the AEGs or DOX or AE at a total sample concentration of 5 μM. After 2 hours of incubation, the cells were washed three times, using PBS×1 (0.5 ml per well), and incubated with paraformaldehyde (3.7% in PBS 0.5 ml per well). After 15 min at ambient temperature, the cells were washed twice using PBS×1 0.5 ml per well. Cells were shaken at 50 rpm for 5 min after each wash. The plasma membrane of the fixated cells was stained by incubation of the samples with 300 μl of DiIC18(5)-DS ([…]) at 4° C. After 20 min, the cells were washed twice using PBS×1 0.5 ml per well. Cells were shaken at 50 rpm for 5 min after each wash. Finally, the samples were placed on a microscope slide and fixed using 10 μl of mounting. The slides were observed using an Andor Revolution Imaging System equipped with a Yokogawa CSU-X1 Spinning Disk Unit and an iXon 897 back-illuminated EMCCD camera, and mounted on a custom made Olympus IX-Upright microscope at Ex/Em=488/525 nm for DOX and AE glycoside I and Ex/Em=640/685 nm for DiIC18 (5)-DS.
A possible explanation for the potency of the synthetic AEGs against. DOX resistant cells was provided using fluorescent confocal microscopy (FIG. 11). […]

NAR cells = assay: Cytotoxicity IC50 experiments, XTT kit, 24 h incubation; details: for IC50: DOX resistant, P-gp overexpressing; for viability at 100 µM: read-out: cell viability
Protocol: (§1) Aloe-emodin was purchased from Molekula.
(§2) The cells were incubated for 24 h.
Finally, AEGs 13-16 were evaluated against DOX resistant ovarian cancer NAR cells in which resistance is conferred by overexpression of P-gp efflux pumps^[36]

MCF-7 cells = assay: Light microscopy study of treated cells; assay type: cell-based; details: MCF-7, 20 μM, 24 hours, x400
Protocol: FIG. 9: Light microscopy (x400) pictures of MCF-7 cells: Cell cultures were incubated for 24 hours. (a) Untreated control cells (b) AE 20 μM (c), Dox 20 μM, (d) AEG 13 20 μM.
Cells micrographs were obtained using a light microscope (Olympus IX50-S8F2 inverted phase microscope) at x400 magnification.

MOLT-4 = assay: Cytotoxicity IC50 experiments, XTT kit, 24 h incubation; details: for IC50: read-out: IC-50 values after 24 h incubation, MOLT-4, 24 h incubation, XTT
Protocol: The cell lines used in this study were as follows: acute lymphoblastic leukemia (Molt-4), ovarian carcinoma (OVCAR3, NAR), breast adenocarcinomas (MCF7), B16 (murine melanoma), HCT 116 (human colon adenocarcinoma), and MCA 105 (murine fibrosarcoma), that were purchased from ATCC (Manassas, Va.). All cell lines except Molt-4 were grown in Dulbecco's modified Eagle's medium supplemented with 10% FBS, 1 mM L-glutamine, 100 U/ml penicillin, 100 μg/ml streptomycin. Molt-4 cells were grown in RPMI-1640 with the same supplements.
Cells (5×10^3/well) were plated into 96-well microtiter plates and were allowed to adhere (except for the leukemic cells) before treatment. After 24 hours, the plates were added with 5 μL of AEGs or AE or DOX solutions at different concentrations. The cells were incubated for 24 h. Cell viability was determined using an XTT kit protocol (Biological Industries). Optical density (OD) was read at 490 nm with a VERSAmax microplate ELISA reader (Molecular Devices, Sunnyvale, Calif., USA). IC50 values were determined as the concentrations in which the OD value of the tested compound reached 50% of the OD value of the control containing un-treated cells. All experiments were performed in triplicates and repeated three times. All cell lines were grown in Dulbecco's modified Eagle's medium (or RPMI-1640 for Molt-4 cells) supplemented with 10% FBS, 1 mM L-glutamine, 100 U/ml penicillin, 100 μg/ml streptomycin. Cells were maintained in a humidified chamber of 95% air 5% CO2 at 37° C.

B16 (murine melanoma) = assay: Cytotoxicity assay of compounds 11 and 12 (XTT, % cytotoxicity)
Protocol: (§3) The respective cell type at 1×10^4 cells/well was incubated for 24 hours in 96-well plates and cell viability was determined using the 2,3-bis(2-methoxy-4-nitro-5-sulphophenyl)-2H-tetrazolium-5-carboxanilide (XTT) kit (Biological Industries, Israel). […] Optical density is directly proportional to the number of living cells in culture. Cytotoxicity (%) was calculated in the following way: [(absorbance of control cells−absorbance of drug-treated cells)/absorbance of control cells]×100. Results shown are averages of 3 repeats ±SE.

[1] = tested on: HCT 116 (human colon adenocarcinoma); assay: as above
Protocol: as §3

[2] = tested on: MCA 105 (murine fibrosarcoma); assay: as above
Protocol: as §3

[3] = tested on: Molt-4 (human T cell leukemia); assay: as above
Protocol: as §3

OVCAR-3 = assay: Cytotoxicity IC50 experiments, XTT kit, 24 h incubation; assay type: cell-based; details: for IC50: 24 h incubation, XTT, read-out: IC-50 values after 24 h incubation, OVCAR-3; for viability at 20 µM: OVCAR-3, 20 μM, 24 h, read-out: cell viability
Protocol: as §1, §2

[4] = tested on: supercoiled plasmid PBR322; assay: Supercoiled plasmid DNA unwinding gel experiment (DNA intercalation); assay type: binding
Protocol: Eppendorf tubes containing 3 μL supercoiled plasmid PBR322 (0.167 μg/ml), 14 μL tris-HCl-di-natrium-EDTA (TE X1) and 5 μL, AE, or one of the AEGs 1-4 or doxorubicin, at different concentrations were incubated for 15 min at 37° C. The samples were then added with 2 μl of loading buffer, and loaded on a 1% agarose gel in tris-HCl-boric-acid-di-natrium-EDTA (TBE X1). Samples were on the gel run for 15 min at 50 V and an additional 225 min at 70V. The gels were then immersed in a 0.5 mg/ml solution of ethidium bromide shaken for 20 min., washed with DDW for […]. DNA was visualized by UV illumination.
The DNA intercalation property of AEGs 13-16 was studied by applying the robust supercoiled plasmid DNA unwinding gel experiments protocol.^[23,37,38] Briefly, samples containing one of the AEGs 13-16, DOX or AE were pre-incubated with PBR322DNA plasmid, loaded on a 1% agarose gel, run for 4 hours at 70 volts and stained with ethidium bromide. […] At 200 μM.

MCF-7 = assay: Cytotoxicity IC50 experiments, XTT kit, 24 h incubation; details: Homo sapiens, MCF7, 24 h, read-out: cell viability
Protocol: as §1, §2

[5] = cited from earlier work
[6] = 24 h, read-out: IC-50 values after 24 h incubation, NAR, 24 h incubation, XTT
[7] = B16, 24 hours of incubation, E-1 at the highest concentration
[8] = HCT116, 24 hours of incubation, E-1 at the highest concentration
[9] = MCA 105, 24 hours of incubation, E-1 at the highest concentration
[10] = Molt-4, 24 hours of incubation, E-1 at the highest concentration
[11] = read-out: IC-50 values after 24 h incubation, NAR, 24 h incubation, XTT

Compound: COc1cccc2c1C(=O)c1c(O)c3c(c(O)c1C2=O)C[C@@](O)(C(=O)CO)C[C@@H]3O[C@H]1C[C@H](N)[C@H](O)[C@H](C)O1 [DOX, doxorubicin, reference compound]
- cellular accumulation (cell permeability) (DOX resistant NAR cells): accumulated mainly in the plasma membrane
- IC50 (NAR cells; [6]): > 100 µM
- cell viability (NAR cells; NAR, 100 μM, 24 h): not affected at all
- cell numbers and cell morphology by light microscopy (MCF-7 cells): became more spherical in shape and smaller in size
- IC50 (MOLT-4): 0.2 ± 0.07 µM
- cytotoxicity, general outcome (FIG. 4B) (B16 (murine melanoma)): much more effective than the other compounds
- cytotoxicity, general outcome (FIG. 4C) [1]: much more effective than the other compounds
- cytotoxicity, general outcome (FIG. 4D) [2]: much more effective than the other compounds
- cytotoxicity, general outcome (FIG. 4A) [3]: much more effective than the other compounds
- toxicities (cytotoxicity) ([3]; human): about 20%
- IC50 (OVCAR-3; Homo sapiens, OVCAR-3, 24 h): > 20 µM
- viability at 20 µM (OVCAR-3; Homo sapiens): 61%
- DNA shift effect ([4]; 20 μM): still significant
- DNA shift effect ([4]; 200 μM): intense effect
- viability at 20 µM (MCF-7): 83%

Compound: NC1CC(OCc2cc(O)c3c(c2)C(=O)c2cccc(O)c2C3=O)OCC1O [E-1, Aloe-Emodin connected through C-7 to alpha 2-deoxy-3-deoxy-3-amino-L-xylopyranose]
- cytotoxicity, general outcome (FIG. 4B) (B16 (murine melanoma); [7]): much more effective than Alo
- cytotoxicity, general outcome (FIG. 4C) [1, 8]: much more effective than Alo
- cytotoxicity, general outcome (FIG. 4D) [2, 9]: much more effective than Alo
- cytotoxicity ([3]; Molt-4, 100 μM, 4 hours of incubation): about 90%
- cytotoxicity, general outcome (FIG. 4A) [3, 10]: much more effective than Alo

Compound: CC1O[C@H](OCc2cc(O)c3c(c2)C(=O)c2cccc(O)c2C3=O)CC(N)[C@H]1O (some centres unmarked) [AEG 14]
- viability at 100 µM (NAR cells; 24 h): 65%
- IC50 (NAR cells; [11]): > 100 µM
- IC50 (MOLT-4): 7.6 ± 1.6 µM
- IC50 (OVCAR-3): 6.4 ± 0.2 µM
- DNA shift effect ([4]; 200 μM): weak effect

Compound: CC1O[C@@H](OCc2cc(O)c3c(c2)C(=O)c2cccc(O)c2C3=O)CC(N)[C@H]1O (some centres unmarked) [AEG 15]
- IC50 (NAR cells; [11]): 18 ± 1.3 µM
- IC50 (MOLT-4): 5.4 ± 0.4 µM
- IC50 (OVCAR-3): 15.7 ± 0.8 µM

Compound: CC1O[C@H](OCc2cc(O)c3c(c2)C(=O)c2cccc(O)c2C3=O)CC(N)[C@H]1O (some centres unmarked) [AEG 16]
- IC50 (NAR cells; [11]): 28.3 ± 2.3 µM
- IC50 (MOLT-4): 12.8 ± 0.7 µM
- IC50 (OVCAR-3): > 20 µM
- viability at 20 µM (OVCAR-3; Homo sapiens): 60%
- viability at 20 µM (MCF-7): 83%

Compound: NC1CC(OCc2cc(O)c3c(c2)C(=O)c2cccc(O)c2C3=O)OCC1O [E-2, Aloe-Emodin connected through C-7 to beta 2-deoxy-3-deoxy-3-amino-L-xylopyranose]
- cytotoxicity, general outcome (FIG. 4B) (B16 (murine melanoma); [7]): much weaker effect
- cytotoxicity, general outcome (FIG. 4C) [1, 8]: much weaker effect
- cytotoxicity, general outcome (FIG. 4D) [2, 9]: much weaker effect
- cytotoxicity, general outcome (FIG. 4A) [3, 10]: much weaker effect
- toxicities (cytotoxicity) ([3]; Molt-4, up to 8 hours of incubation): about 20%

- cellular accumulation (cell permeability) (DOX resistant NAR cells): intracellular accumulation
Compound: CC1O[C@@H](OCc2cc(O)c3c(c2)C(=O)c2cccc(O)c2C3=O)CC(N)[C@H]1O (some centres unmarked) [AEG 13]
- improvement in cytotoxic potency compared to DOX and AE (NAR cells): at least two orders of magnitude
- IC50 (NAR cells; [11]): 8.6 ± 0.6 µM
- cell numbers and cell morphology by light microscopy (MCF-7 cells): a very small number of highly damaged cells was observed
- IC50 (MOLT-4): 5.8 ± 1.3 µM
- IC50 (OVCAR-3): 5.2 ± 0.1 µM
- DNA shift effect ([4]; 200 μM): most significant effect

Compound: O=C1c2cccc(O)c2C(=O)c2c(O)cc(CO)cc21 [AE, Aloe-emodin]
- solubility in water and in physiological solutions [5]: hardly soluble
- IC50 (NAR cells; [6]): > 100 µM
- viability at 100 µM (NAR cells; 24 h): 78%
- cell viability (MOLT-4; MOLT-4, 20 μM, 24 h): 100%
- IC50 (MOLT-4): > 20 µM
- toxicities (cytotoxicity) ([3]; human): about 20%
- IC50 (OVCAR-3; Homo sapiens, OVCAR-3, 24 h): > 20 µM
- viability at 20 µM (MCF-7): 77%
